In patent publication US20250177576A1, “COMPOUNDS FOR THE MEASUREMENT OF THE OXYGEN CONCENTRATION” (Center for Neuromusculoskeletal Restorative Medicine Limited, priority 2022, published 2025):

Tests used:
Format in all cases: physicochemical
[1] = Photoluminescence spectra in dichloromethane, oxygen-free vs ambient; conditions: 10 μM in dichloromethane, excitation 500 nm
Experimental: (§1) Proton and carbon NMR spectra were measured in CDCl3 on a Bruker AVANCE III 400 MHz NMR Spectrometer and tetramethylsilane (TMS) was exploited as an internal standard for calibrating the chemical shift. Electrospray Ionization Quadrupole-Time-of-Flight (ESI-Q-TOF) mass spectrometry was performed on an Agilent 6540 Liquid chromatography—ESI-Q-TOF Mass Spectrometer. UV/Vis absorption spectroscopy was performed on a Molecular Devices SpectraMax M2e in different solutions at 293 K. Fluorescence emission spectra were taken from a LS-55 fluorescence spectrophotometer (PerkinElmer) at 293 K.

[2] = PL spectra in water/tetrahydrofuran binary mixtures (aggregation, AIE/ACQ)
Experimental: as §1
In view of the co-planar chemical structure of Pt(ttiq)(acac), it was interesting to look for any aggregation induced emission (AIE) or aggregation caused quenching (ACQ) property. […] When the water fraction further increased to or above 80%, the mixture formed clearly observable precipitates in the cuvette.
In order to observe whether these nanoaggregates were still readily quenched by oxygen, the PL spectra of the nanoaggregates' solution with a fwater of 60% was compared before and after the deaeration.

[3] = Oxygen quenching calibration (Stern-Volmer) in tetrahydrofuran; conditions: 10 μM in tetrahydrofuran
Experimental: The photoluminescence spectra of the Pt(ttiq)(acac) (10 μM) in tetrahydrofuran in different oxygen concentrations upon 500 nm photoexcitation is presented in FIG. 2A. The phosphorescence peak intensity (698 nm) increases while the oxygen level of the solution decreases, whereas the fluorescence (528 nm) remains independent of the oxygen level. The oxygen quenching of the phosphorescence may be interpreted using Stern-Volmer relationship, in which (I0/I=1+KSV·[O2]) where I: phosphorescence intensity; I0: phosphorescence intensity at 0% of oxygen; KSV: quencher coefficient; [O2]: oxygen concentration. The data of FIG. 2A are fitted with this relationship in FIG. 2B and thus the I0 could be estimated from the equation of (y=133.75801/(1+0.0371−x); adjusted R^2=0.98066). Therefore, a linear correlation of I0/I against [O2](y=1.10962+0.03545 x; adjusted R^2=0.99036) could be established as in FIG. 2C. Mathematically, the Stern-Volmer relationship could be further derived to (R0/R=1+KSV·[O2]) whereas the fluorescence peak intensity is a constant, and thus the R0 could be estimated from the equation of (y=2.04177/(1+0.03267−x); adjusted R^2=0.97785) in FIG. 2D. Similarly, a linear correlation of R0/R against [O2](y=1.07595+0.03165−x; adjusted R^2=0.98135) could be established as in FIG. 2E. In short, the linear correlation between the ratiometric photoluminescence signal and oxygen concentration (%) obtained from FIG. 2E may be utilized to analyze the oxygen content of a tetrahydrofuran sample without the concerns of concentration dependency and absolute intensity value.
The oxygen concentration (%) or partial pressure of solution samples were varied by O2/N2 gas-purging with a syringe needle and natural ventilation (or gradually adding sodium sulfite (Na2SO3) solution as an oxygen consuming chemical reagent). The instantaneous oxygen concentration (%) of aqueous samples (or oxygen partial pressure values of tetrahydrofuran solutions) at 293 K were measured using pre-calibrated FireSting®-GO2 oxygen meter (PyroScience) coupled with a TDIP15 temperature probe (PyroScience) and a fiber optic sensor (OXR430-OI, or OXSOLV for organic solvent measurement) (PyroScience). The photoluminescence signals of the nano-sensor solution at different oxygen concentrations (%) (or partial pressures) were then measured by the fluorescence spectrophotometer and confocal laser scanning microscope. The calibration curves were established using the signal intensity at 528 nm and 698 nm from the PL spectra, and integrated signals' intensity from customized green channel (507-609 nm) and red channel (657-740 nm) from the CLSM images.

## CC(=O)C=C(C)[O][Pt][c]1c(-c2nccc3ccccc23)sc2ccsc12 [Pt(ttiq)(acac)]
[1]; disregarding oxygen content
  constant PL peak (fluorescence) wavelength: 528 nm
[1]; oxygen-sensitive peak
  maximum phosphorescence intensity wavelength: 698 nm
[2]; fwater 60%, before and after deaeration
  oxygen response of nanoaggregates: still very responsive to the oxygen content
[2]; water fraction 0 to 70% in tetrahydrofuran, 10 μM, ambient, excitation 500 nm
  aggregation induced emission property: AIE-active species in the region of 650-750 nm
[2]; water/tetrahydrofuran mixture, 10 μM
  water fraction at which clearly observable precipitates form: ≥ 80%
[3]
  quencher coefficient KSV from fit of PL intensity ratio (FIG. 2D): 0.03267
  slope of linear correlation I0/I against [O2] (FIG. 2C): 0.03545
  slope of linear correlation R0/R against [O2] (FIG. 2E calibration curve): 0.03165
[3]; excitation 500 nm
  fluorescence peak wavelength: 528 nm
  phosphorescence peak wavelength: 698 nm
[3]; vs oxygen partial pressure
  quencher coefficient KSV from fit of phosphorescence intensity (FIG. 2B): 0.0371
